Calls of active or inactive are those of the source. Rule as the data show it, for most assays here: actives have a measured EC50 and inactives only a lower limit.
What was measured:
[1] = tested on: H9c2; experiment: cells; format: functional, cell-based; settings: Rattus norvegicus, H9c2, Myocardium;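 also: confirmatory concentration-response retest of ultra-high-throughput screening hits for modulation of myocardial damage; cell death induced by hydrogen peroxide oxidative stress; compound pretreatment for 60 min then peroxide exposure for 2 h; potency is for protecting the cells against peroxide damage rather than for killing them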
[2] = molecular target: T1, RNA-binding protein pos-1 (Caenorhabditis elegans, UniProt G5EF15); experiment: disruptors of C. elegans POS-1 RNA interaction – biochemical, fluorescence polarization, dose response (AID 1964);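 also: purified POS-1 fused to maltose binding protein made in E. coli; potency of compounds blocking POS-1 binding to fluorescent RNA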
T1 sequence (G5EF15 whole entry): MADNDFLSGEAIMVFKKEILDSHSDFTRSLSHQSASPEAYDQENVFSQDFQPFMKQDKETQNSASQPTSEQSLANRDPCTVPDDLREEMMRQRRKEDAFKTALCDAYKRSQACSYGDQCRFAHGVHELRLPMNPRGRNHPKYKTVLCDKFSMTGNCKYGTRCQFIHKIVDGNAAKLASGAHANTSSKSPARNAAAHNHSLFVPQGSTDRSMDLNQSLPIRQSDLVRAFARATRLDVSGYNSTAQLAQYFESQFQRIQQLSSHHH

[3] = molecular target: T2, Zinc finger protein mex-5 (Caenorhabditis elegans, UniProt Q9XUB2); experiment: potency of MEX-5 RNA-binding blockers – biochemical, C. elegans, fluorescence polarization, dose response (AID 1960)
T2 sequence (Q9XUB2 whole entry): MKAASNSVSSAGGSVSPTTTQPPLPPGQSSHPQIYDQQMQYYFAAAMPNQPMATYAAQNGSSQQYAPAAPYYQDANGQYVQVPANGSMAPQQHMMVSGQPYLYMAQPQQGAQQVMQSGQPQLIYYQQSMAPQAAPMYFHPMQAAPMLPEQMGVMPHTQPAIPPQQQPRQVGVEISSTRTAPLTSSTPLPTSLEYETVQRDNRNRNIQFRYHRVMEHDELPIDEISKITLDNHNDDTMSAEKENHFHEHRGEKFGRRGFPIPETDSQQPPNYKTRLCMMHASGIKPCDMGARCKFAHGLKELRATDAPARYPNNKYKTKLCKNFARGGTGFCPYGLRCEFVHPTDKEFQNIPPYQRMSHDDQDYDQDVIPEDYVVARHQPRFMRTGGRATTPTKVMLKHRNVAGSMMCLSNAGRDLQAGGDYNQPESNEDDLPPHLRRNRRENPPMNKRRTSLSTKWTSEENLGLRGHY

[4] = molecular target: T3, Heat shock factor protein 1 (Mus musculus, UniProt P38532); experiment: decrease of HSF1-responsive luciferase luminescence – cell-based, NIH3T3, dose retest, confirmation (AID 2382); format: functional;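 also: NIH3T3 fibroblasts with HSF1-driven luciferase reporter stressed by proteasome inhibitor MG132; luminescence from HSF1-driven luciferase expression after 8 hours of MG132 stress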
T3 sequence (P38532 whole entry): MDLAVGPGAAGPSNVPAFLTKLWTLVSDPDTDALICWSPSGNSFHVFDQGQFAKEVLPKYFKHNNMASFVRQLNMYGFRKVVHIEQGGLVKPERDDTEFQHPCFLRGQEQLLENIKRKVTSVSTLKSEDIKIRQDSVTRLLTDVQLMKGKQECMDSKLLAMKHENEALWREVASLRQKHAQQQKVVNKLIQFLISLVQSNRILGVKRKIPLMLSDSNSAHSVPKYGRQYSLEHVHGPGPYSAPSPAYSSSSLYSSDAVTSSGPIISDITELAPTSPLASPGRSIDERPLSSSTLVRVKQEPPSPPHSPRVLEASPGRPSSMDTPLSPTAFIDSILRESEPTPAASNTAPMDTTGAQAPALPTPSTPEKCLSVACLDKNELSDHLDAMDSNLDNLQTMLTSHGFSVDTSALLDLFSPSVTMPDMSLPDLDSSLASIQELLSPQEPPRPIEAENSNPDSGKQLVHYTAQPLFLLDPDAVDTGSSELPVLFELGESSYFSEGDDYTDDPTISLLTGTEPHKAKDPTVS

[5] = molecular target: T4, Corticotropin-releasing factor receptor 2/Corticotropin-releasing factor-binding protein (Homo sapiens, UniProt P24387+Q13324); experiment: Dose Response confirmation of uHTS hits for small molecule antagonists of the CRF-binding protein and CRF-R2 receptor complex.; format: functional; settings: read-out: IC50_Mean
T4 sequence (Q13324 whole entry): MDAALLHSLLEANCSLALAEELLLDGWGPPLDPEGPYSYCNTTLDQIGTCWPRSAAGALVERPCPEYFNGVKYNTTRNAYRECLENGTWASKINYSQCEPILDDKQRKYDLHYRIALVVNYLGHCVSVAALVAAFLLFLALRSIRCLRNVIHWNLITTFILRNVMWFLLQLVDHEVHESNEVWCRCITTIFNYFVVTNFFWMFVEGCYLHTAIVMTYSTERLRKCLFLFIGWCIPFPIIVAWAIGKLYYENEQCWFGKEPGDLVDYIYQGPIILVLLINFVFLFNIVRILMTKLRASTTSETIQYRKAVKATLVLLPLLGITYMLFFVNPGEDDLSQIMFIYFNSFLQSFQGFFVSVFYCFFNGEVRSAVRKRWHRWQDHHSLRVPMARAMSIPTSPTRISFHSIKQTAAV
T4 sequence (P24387 whole entry): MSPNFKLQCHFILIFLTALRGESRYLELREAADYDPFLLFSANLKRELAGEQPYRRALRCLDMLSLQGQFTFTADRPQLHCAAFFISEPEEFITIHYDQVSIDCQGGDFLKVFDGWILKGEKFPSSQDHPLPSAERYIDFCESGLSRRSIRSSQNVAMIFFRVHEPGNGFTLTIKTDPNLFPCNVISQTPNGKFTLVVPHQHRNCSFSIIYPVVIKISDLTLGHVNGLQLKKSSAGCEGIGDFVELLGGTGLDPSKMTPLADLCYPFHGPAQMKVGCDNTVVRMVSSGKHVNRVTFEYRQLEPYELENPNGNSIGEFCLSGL

[6] = molecular target: T4, Corticotropin-releasing factor receptor 2/Corticotropin-releasing factor-binding protein; experiment: activators of CRF receptor 2 with binding protein – uHTS hits, confirmation (AID 602473); format: functional; settings: read-out: EC50_Mean
[7] = molecular target: T5, Calpain-2 catalytic subunit (Sus scrofa, UniProt P43367); experiment: m-calpain protease blockers, concentration series – biochemical, fluorogenic peptide substrate, dose response (AID 1420); format: functional
T5 sequence (P43367 whole entry): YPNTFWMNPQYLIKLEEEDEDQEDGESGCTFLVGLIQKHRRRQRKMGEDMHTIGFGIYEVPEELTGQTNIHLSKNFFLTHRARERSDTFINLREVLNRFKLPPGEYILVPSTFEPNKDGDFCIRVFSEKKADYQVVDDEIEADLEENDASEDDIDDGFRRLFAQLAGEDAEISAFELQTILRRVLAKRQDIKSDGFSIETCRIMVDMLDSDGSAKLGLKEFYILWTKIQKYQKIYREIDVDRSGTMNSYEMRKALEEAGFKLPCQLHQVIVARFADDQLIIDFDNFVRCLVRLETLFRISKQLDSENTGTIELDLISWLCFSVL

[8] = NIH-3T3 fibroblast cytotoxicity, dose response, cytotoxicity control, cell-based, fluorescence, Alamar Blue, secondary assay (AID 2327); format: functional;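 also: NIH-3T3 mouse fibroblasts cultured with fluconazole at 8 µg/mL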
[9] = fluconazole-exposed Candida albicans growth modulators – fluorescence, retest, confirmation (AID 2467); format: functional, cell-based

With `COc1ccc(CCNC(=O)C(=O)NCC2CCCN2S(=O)(=O)c2cc(C)ccc2C)cc1` (centres undefined) the IC50 [1] was 34.1 µM (inactive).

For `CCCCC1=CC2=CC(=O)C(C)(OC(=O)c3ccco3)C(=O)C2=CO1` (centres undefined), the EC50 [2] was 20.5 µM (active) and the EC50 [3] was 16.2 µM (active).

In the case of `CC(C)CN(CC(C)C)C(S)=NC1CCCCC1`, the EC50 [4] is reported as 17 µM (active), the IC50 [5] is reported as > 47.1 µM (inactive) and the EC50 [6] is reported as > 53 µM (inactive).

In the case of `Cc1ccc(-c2nn(C)c(=O)c3ccccc23)cc1S(=O)(=O)NCCN(C)C`, the EC50 [4] is reported as > 195 µM (not active).

In the case of `C=CCSc1nnc(N2C(=O)C(O)=C(C(=O)c3ccco3)C2c2ccccc2F)s1` (centres undefined), the EC50 [2] is reported as 48.3 µM (active) and the EC50 [3] is reported as 54.8 µM (active).

For `O=C(NC(=S)Nc1ccc2oc(=O)ccc2c1)c1cc2ccccc2o1`, the EC50 [4] was > 195 µM (not active).

In the case of `CN(C)S(=O)(=O)c1ccc2c(c1)nc(CCC(=O)NCc1ccc(Cl)cc1)n2C`, the IC50 [7] is reported as 6.82 µM (not active).

With `O=C1/C(=C/c2ccc(Br)cc2)Oc2cc(O)ccc21` the EC50 [2] was 7.71 µM (active) and the EC50 [3] was 6.67 µM (active).

With `O=P(Nc1ccccc1)(Oc1ccccc1)Oc1ccccc1` the IC50 [1] was > 79 µM (inactive).

For `CCCCOP(=O)(c1ccc(N(C)C)cc1)C(O)c1ccccc1F` (centres undefined), the EC50 [8] was > 150 µM (inactive) and the EC50 [9] was 2.56 µM (active).

With `CCC(C)n1c(=N)c(C#N)cc2c(=O)n3cc(C)ccc3nc21` (centres undefined) the EC50 [2] was > 300 µM (not active) and the EC50 [3] was 254 µM (inconclusive).

In the case of `Cc1ccccc1Nc1scc(-c2ccc(Cl)cc2)[n+]1-c1ccccc1C`, the IC50 [7] is reported as > 50 µM (not active).

For `CCc1cc(C(=O)Nc2ccc(OC)nc2)sc1C`, the EC50 [2] was 11.8 µM (active) and the EC50 [3] was 9.29 µM (active).

In the case of `CC1(C)C(=O)OC(c2c(F)c(F)c(F)c(F)c2F)C2(CCCCC2)C1=O` (centres undefined), the IC50 [7] is reported as 4.17 µM (not active).

For `CNC(=O)NC(=O)C(C)Oc1ccccc1F` (centres undefined), the IC50 [7] was < 0.4 µM (not active).

In the case of `O=C(CSc1nc(-c2ccco2)cc(C(F)(F)F)n1)NCCc1ccccc1`, the EC50 [8] is reported as 136 µM (inconclusive) and the EC50 [9] is reported as > 38 µM (not active).

In the case of `O=C(Nc1ccc2c(c1)OCO2)c1cnn2c(C(F)(F)F)cc(-c3ccco3)nc12`, the IC50 [1] is reported as > 79 µM (inactive).

In the case of `Cc1cc2c3c(c1)C(C)CC(C)(C)N3C(=O)C2=O` (centres undefined), the EC50 [2] is reported as > 300 µM (not active) and the EC50 [3] is reported as > 300 µM (not active).

In the case of `CCCc1cc(=O)oc2c(CNc3ccc(OCC)cc3)c(O)ccc12`, the IC50 [1] is reported as > 79 µM (inactive).

In the case of `Cc1ccc(S(=O)(=O)NNC(=S)NC(=O)c2ccc([N+](=O)[O-])cc2)cc1`, the EC50 [2] is reported as 31.8 µM (active) and the EC50 [3] is reported as 21.1 µM (active).

In the case of `Oc1nc2cc3c(cc2cc1CN(Cc1nnnn1CC1CCCO1)C1CCCCC1)OCO3` (centres undefined), the IC50 [1] is reported as 27.5 µM (active).

With `CCN(CC)c1nc(-c2nnn[nH]2)nc(N(CC)CC)n1` the EC50 [2] was > 300 µM (not active) and the EC50 [3] was > 300 µM (not active).

Reference: ChEMBL document CHEMBL1201862, “PubChem BioAssay data set” (2004)
